According to publication PMC3297713 (Journal of Medicinal Chemistry, 2012):

Experiments:
[1] = target: full-length human ERβ (Homo sapiens, UniProt Q92731); experiment: 3X-ERE luciferase reporter gene assay in HepG2 cells, ERβ; assay type: cell-based
[2] = target: T1, full-length human ERα (Homo sapiens, UniProt P03372); experiment: 3X-ERE luciferase reporter gene assay in HepG2 cells, ERα; assay type: cell-based
T1 sequence (P03372 1-595): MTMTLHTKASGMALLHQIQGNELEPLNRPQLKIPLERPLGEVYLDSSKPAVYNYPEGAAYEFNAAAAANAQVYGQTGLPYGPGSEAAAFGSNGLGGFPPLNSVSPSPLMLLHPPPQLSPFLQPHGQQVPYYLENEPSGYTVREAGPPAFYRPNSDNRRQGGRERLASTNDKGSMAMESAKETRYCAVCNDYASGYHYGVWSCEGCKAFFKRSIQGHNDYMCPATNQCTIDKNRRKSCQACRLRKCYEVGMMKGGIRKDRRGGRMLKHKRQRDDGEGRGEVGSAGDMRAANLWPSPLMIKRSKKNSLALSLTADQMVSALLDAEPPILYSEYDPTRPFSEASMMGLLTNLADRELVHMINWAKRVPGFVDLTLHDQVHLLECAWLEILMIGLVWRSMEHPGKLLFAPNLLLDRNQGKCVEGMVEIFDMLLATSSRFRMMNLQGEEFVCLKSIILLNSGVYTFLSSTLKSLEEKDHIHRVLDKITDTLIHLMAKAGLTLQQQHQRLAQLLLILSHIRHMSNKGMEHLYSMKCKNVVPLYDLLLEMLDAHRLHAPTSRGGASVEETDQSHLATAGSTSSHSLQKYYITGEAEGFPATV

Chain of full-length human ERβ (Q92731 whole entry): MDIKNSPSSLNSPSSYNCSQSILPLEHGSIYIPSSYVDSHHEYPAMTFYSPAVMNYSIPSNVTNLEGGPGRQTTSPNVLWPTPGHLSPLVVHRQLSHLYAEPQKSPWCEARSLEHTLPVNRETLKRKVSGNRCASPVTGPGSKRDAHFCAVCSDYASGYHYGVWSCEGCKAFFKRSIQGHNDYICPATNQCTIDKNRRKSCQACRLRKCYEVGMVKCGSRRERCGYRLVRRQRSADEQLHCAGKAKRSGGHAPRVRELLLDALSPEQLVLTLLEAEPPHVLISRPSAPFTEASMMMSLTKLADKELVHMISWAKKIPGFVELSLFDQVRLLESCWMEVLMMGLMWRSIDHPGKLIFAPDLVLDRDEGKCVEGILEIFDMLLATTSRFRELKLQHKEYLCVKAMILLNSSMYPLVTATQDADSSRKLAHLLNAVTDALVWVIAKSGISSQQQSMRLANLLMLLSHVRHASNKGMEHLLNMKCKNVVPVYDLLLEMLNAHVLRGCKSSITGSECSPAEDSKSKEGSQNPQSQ

Row | SMILES | EC50 [1] [µM] | other results
1 | Cc1cc(C2=C(c3ccc(O)c(C)c3)[C@H]3[C@@H](S(=O)(=O)Oc4ccccc4Cl)C[C@@H]2[S+]3[O-])ccc1O (relative stereo) [Compound 12d] | > 10 | 
2 | Cc1cc(O)ccc1C1=C(c2ccc(O)cc2C)[C@H]2[C@@H](S(=O)(=O)Oc3cccc4ccccc34)C[C@@H]1[S+]2[O-] (relative stereo) [Compound 11j] | > 10 | 
3 | Cc1cc(O)ccc1C1=C(c2ccc(O)cc2C)[C@H]2[C@@H](S(=O)(=O)Oc3ccc(F)cc3)C[C@@H]1[S+]2[O-] (relative stereo) [Compound 11f] | > 10 | 
4 | Cc1cc(O)ccc1C1=C(c2ccc(O)cc2C)[C@H]2[C@@H](S(=O)(=O)Oc3ccc(Cl)cc3)C[C@@H]1[S+]2[O-] (relative stereo) [Compound 11g] | > 10 | 
5 | COc1ccc(OS(=O)(=O)[C@H]2C[C@H]3C(c4ccc(O)cc4C)=C(c4ccc(O)cc4C)[C@@H]2[S+]3[O-])cc1 (relative stereo) [Compound 11b] | > 10 | 
6 | Cc1cc(O)ccc1C1=C(c2ccc(O)cc2C)[C@H]2[C@@H](S(=O)(=O)Oc3ccccc3F)C[C@@H]1[S+]2[O-] (relative stereo) [Compound 11c] | > 10 | 
7 | Cc1cc(O)ccc1C1=C(c2ccc(O)cc2C)[C@H]2[C@@H](S(=O)(=O)Oc3ccccc3Br)C[C@@H]1[S+]2[O-] (relative stereo) [Compound 11e] | > 10 | 
8 | Cc1cc(C2=C(c3ccc(O)c(C)c3)[C@H]3[C@@H](S(=O)(=O)Oc4ccccc4Br)C[C@@H]2[S+]3[O-])ccc1O (relative stereo) [Compound 12e] | > 10 | 

More lines, main results first:

Row | EC50 [1] [µM] | SMILES | other results
9 | > 10 | COc1ccc(OS(=O)(=O)[C@H]2C[C@H]3C(c4ccc(O)c(C)c4)=C(c4ccc(O)c(C)c4)[C@@H]2[S+]3[O-])cc1 (relative stereo) [Compound 12b] | 
10 | > 10 | Cc1ccc(C2=C(c3ccc(C)cc3)[C@H]3[C@@H](S(=O)(=O)Oc4ccc(O)cc4)C[C@@H]2[S+]3[O-])cc1 (relative stereo) [Compound 14] | 
11 | > 10 | COc1ccc(OS(=O)(=O)[C@H]2C[C@H]3C(c4ccc(O)cc4)=C(c4ccc(O)cc4)[C@@H]2[S+]3[O-])cc1 (relative stereo) [Compound 10b] | EC50 [2]: > 10 µM
12 | > 10 | O=S(=O)(Oc1ccc(O)cc1)[C@H]1C[C@H]2C(c3ccc(O)cc3)=C(c3ccc(O)cc3)[C@@H]1[S+]2[O-] (relative stereo) [Compound 10c] | 
13 | > 10 | Cc1cc(C2=C(c3ccc(O)c(C)c3)[C@H]3[C@@H](S(=O)(=O)Oc4ccccc4)C[C@@H]2[S+]3[O-])ccc1O (relative stereo) [Compound 12a] | 
14 | > 10 | CCOC(=O)[C@@H]1[C@H](C(=O)OCC)[C@@H]2C(c3ccc(O)cc3)=C(c3ccc(O)cc3)[C@H]1[S+]2[O-] (relative stereo) [Compound 10e] | EC50 [2]: > 10 µM
15 | > 10 | O=S(=O)(Oc1ccccc1)[C@H]1C[C@H]2C(c3ccc(O)cc3)=C(c3ccc(O)cc3)[C@@H]1[S+]2[O-] (relative stereo) [Compound 10a] | ERα functional profile (in words) [2]: lacks ERα antagonist activity; ERβ agonist activity (in words) [1]: do not activate ERβ
16 | > 10 | CCOC(=O)[C@@H]1[C@H](C(=O)OCC)[C@@H]2C(c3ccc(O)c(C)c3)=C(c3ccc(O)c(C)c3)[C@H]1[S+]2[O-] (relative stereo) [Compound 12i] | EC50 [2]: > 10 µM
17 | > 10 | Cc1cc(C2=C(c3ccc(O)c(C)c3)[C@H]3[C@@H](S(=O)(=O)Oc4cccc5ccccc45)C[C@@H]2[S+]3[O-])ccc1O (relative stereo) [Compound 12f] | 
18 | > 10 | Cc1cc(C2=C(c3ccc(O)c(C)c3)[C@H]3[C@@H](S(=O)(=O)Oc4ccccc4F)C[C@@H]2[S+]3[O-])ccc1O (relative stereo) [Compound 12c] | 
19 | > 10 | O=S(=O)(Oc1ccc(O)cc1)[C@H]1C[C@H]2C(c3ccccc3)=C(c3ccccc3)[C@@H]1[S+]2[O-] (relative stereo) [Compound 13] | EC50 [2]: > 10 µM
